According to patent US11274115B2, “Imidazoquinoline derivatives and their use in therapy” (GLAXOSMITHKLINE BIOLOGICALS SA, priority 2016, dated 2022):

Key:
Assay type in all cases: cell-based
human TLR8 = molecular target: T1, human TLR8 (Homo sapiens, UniProt Q9NR97); experiment: hTLR8 agonist reporter assay in HEK293 cells (NFκB-SEAP)
T1 construct: host or cells: HEK293
T1 sequence (Q9NR97 27-1041): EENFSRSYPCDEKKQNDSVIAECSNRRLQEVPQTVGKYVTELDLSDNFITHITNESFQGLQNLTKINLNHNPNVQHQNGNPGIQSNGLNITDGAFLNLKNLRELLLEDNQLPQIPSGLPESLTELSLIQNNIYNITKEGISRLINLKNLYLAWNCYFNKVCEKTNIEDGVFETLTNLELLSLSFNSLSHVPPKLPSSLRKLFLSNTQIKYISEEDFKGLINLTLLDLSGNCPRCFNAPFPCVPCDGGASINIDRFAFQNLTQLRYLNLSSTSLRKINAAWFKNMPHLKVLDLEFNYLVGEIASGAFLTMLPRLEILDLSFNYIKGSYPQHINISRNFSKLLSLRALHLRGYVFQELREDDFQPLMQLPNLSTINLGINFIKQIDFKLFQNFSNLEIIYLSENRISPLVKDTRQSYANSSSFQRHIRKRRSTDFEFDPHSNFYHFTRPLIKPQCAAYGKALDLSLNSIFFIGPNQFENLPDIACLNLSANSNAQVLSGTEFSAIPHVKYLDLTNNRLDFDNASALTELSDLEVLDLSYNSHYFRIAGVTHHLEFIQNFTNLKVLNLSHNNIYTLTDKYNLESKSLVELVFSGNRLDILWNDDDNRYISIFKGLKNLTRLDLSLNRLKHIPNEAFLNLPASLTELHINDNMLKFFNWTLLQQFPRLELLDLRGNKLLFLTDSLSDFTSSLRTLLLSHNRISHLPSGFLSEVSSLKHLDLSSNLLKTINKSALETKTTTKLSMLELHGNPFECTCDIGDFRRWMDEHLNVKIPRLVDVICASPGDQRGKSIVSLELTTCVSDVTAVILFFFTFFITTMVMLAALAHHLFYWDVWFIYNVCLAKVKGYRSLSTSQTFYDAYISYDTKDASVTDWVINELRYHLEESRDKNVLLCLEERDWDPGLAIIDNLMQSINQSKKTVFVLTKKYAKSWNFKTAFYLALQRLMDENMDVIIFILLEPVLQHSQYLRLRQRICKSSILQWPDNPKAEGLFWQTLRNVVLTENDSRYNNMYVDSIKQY
Experimental: (§1) Assay for hTLR7 and hTLR8 Agonist Activity in HEK-293 Cells
(§2) Determination of TLR agonist activity was performed using the HEK293 […]. This assay measures TLR7 and TLR8 selectivity and potency of the compounds tested. HEK293 cells expressing human TLR7 or TLR8 and NFκB responsive Secreted Embryonic Alkaline Phosphatase (SEAP) reporter gene were obtained from InvivoGen (San Diego, Calif.). These cells were maintained in culture media of Dulbecco's Modified Eagle Medium (DMEM) (Invitrogen, Grand Island, N.Y.), 10% Fetal Bovine Serum (FBS) (Sigma, St. Louis, Mo.) and selection antibiotics (Invitrogen, and Invivogen). HEK293 stably transfected with human TLR7 (hTLR7) or human TLR8 (hTLR8) were stimulated for 24 h with aqueous formulations of test compounds and culture supernatants were analyzed for NFκB activation using the colorimetric SEAP detection kit QuantBlue (InvivoGen).

[1] = tested on: human peripheral blood mononuclear cells (hPBMCs); experiment: TNF-α induction in hPBMCs; settings: 24 h, FIG. 13
Experimental: (§3) Assays to Measure Cytokine Induction
(§4) Test compounds were evaluated for cytokine induction in human peripheral blood mononuclear cells (hPBMCs).
(§5) Primary human PBMCs were isolated from fresh blood from healthy donors via Ficoll gradient separation and plated at 0.5×10^6 cells/well in 96-well tissue culture plates (RPMI-1640 plus 10% FBS). hPBMCs were maintained with RPMI-1640 culture media (Invitrogen, Grand Island, N.Y.), antibiotics (Invitrogen) and 10% FBS (Sigma).
(§6) Incubation and Assays for IFN-γ, IFN-α and TNF-α
(§7) hPBMCs were stimulated for 24 h with aqueous formulations of test compounds. Culture supernatants were analyzed for TNF-α and IFN-γ induction using multiplex kits (FluoroKine multiplex kits from R&D Systems, Minneapolis, Minn.) and for IFN-α induction using human IFN-α VeriKine ELISA kit (Pestka Biomedical Laboratories, Inc., Piscataway, N.J.).

human TLR7 = molecular target: T2, human TLR7 (Homo sapiens, UniProt Q9NYK1); experiment: hTLR7 agonist reporter assay in HEK293 cells (NFκB-SEAP)
T2 construct: host or cells: HEK293
T2 sequence (Q9NYK1 27-1049): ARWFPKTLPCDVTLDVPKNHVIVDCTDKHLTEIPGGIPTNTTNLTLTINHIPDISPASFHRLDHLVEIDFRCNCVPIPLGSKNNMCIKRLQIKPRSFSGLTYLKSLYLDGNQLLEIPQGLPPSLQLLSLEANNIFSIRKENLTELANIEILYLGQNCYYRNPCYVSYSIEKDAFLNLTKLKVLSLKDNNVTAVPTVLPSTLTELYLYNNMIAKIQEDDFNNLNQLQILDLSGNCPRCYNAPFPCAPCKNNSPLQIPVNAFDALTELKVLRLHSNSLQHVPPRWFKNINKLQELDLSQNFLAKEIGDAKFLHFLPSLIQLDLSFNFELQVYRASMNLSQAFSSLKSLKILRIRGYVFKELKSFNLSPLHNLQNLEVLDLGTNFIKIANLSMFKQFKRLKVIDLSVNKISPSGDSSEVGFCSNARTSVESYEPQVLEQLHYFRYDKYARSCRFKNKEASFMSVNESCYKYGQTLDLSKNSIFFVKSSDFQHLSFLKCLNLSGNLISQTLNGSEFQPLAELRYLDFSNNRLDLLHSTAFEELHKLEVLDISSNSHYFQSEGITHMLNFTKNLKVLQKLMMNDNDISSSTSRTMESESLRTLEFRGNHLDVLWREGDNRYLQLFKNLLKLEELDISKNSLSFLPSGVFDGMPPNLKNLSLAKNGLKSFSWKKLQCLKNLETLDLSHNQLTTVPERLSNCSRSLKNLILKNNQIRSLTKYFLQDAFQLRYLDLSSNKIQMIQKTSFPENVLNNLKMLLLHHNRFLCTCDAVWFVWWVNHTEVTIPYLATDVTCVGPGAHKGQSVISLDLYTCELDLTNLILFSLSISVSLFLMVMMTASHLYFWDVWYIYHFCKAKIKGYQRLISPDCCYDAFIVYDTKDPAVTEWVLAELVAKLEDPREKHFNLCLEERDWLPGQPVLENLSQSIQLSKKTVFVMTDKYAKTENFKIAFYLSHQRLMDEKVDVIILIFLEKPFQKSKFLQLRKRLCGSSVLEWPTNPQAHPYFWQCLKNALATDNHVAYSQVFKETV
Experimental: as §1, §2

[2] = tested on: human peripheral blood mononuclear cells (hPBMCs); experiment: IFN-γ induction in hPBMCs; settings: 24 h, FIG. 11, another occasion
Experimental: as §3, §4, §5, §6, §7

[3] = tested on: human peripheral blood mononuclear cells (hPBMCs); experiment: IFN-α induction in hPBMCs; settings: 24 h, FIG. 12, another occasion
Experimental: as §3, §4, §5, §6, §7

EC50 (human TLR8; Table 2, FIG. 4, another occasion, * = only very low levels of NFKB activation were detected, read-out: hTLR8 ED50): 2.8 µM
hTLR8 agonist activity, in words (human TLR8; text on Table 2, FIG. 4): potent agonist of hTLR7 and hTLR8
EC50 (human TLR7; Table 2, FIG. 3, another occasion, * = only very low levels of NFKB activation were detected, read-out: hTLR7 ED50): 3.4 µM
hTLR7/8 ratio (human TLR7; Table 2, hTLR7 ED50 over hTLR8 ED50): 1.2
hTLR7 agonist activity, in words (human TLR7; text on Table 2, FIG. 3): potent agonist of hTLR7 and hTLR8
SMILES: CCCCCCCC/C=C\CCCCCCCC(=O)OC[C@@H](O)COP(=O)(O)OCCOc1ccc2c(c1)nc(N)c1nc(CCCC)n(CCO)c12 [Example 3]
TNF-α induction, in words [1]: potent at inducing TNF-α
relative potency hTLR7 versus hTLR8, in words (human TLR7; Table 2): approximately equally potent at both receptors
IFN-γ induction, in words [2]: potent at inducing IFN-γ and each was more potent than Comparative Example 3
IFN-α induction, in words [3]: more potent at inducing IFN-α than Comparative Examples 1, 2 and 3
